Laboratory results taken from paper PMC6400584, “Activation mechanism of ATP-sensitive K^+ channels explored with real-time nucleotide binding” (eLife, 2019).

Tests used:
[1] = target: SUR1-Y1353*/Kir6.2 (NBS2 of SUR1) (Homo sapiens, UniProt Q09428, Y1353X); experiment: FRET binding of TNP-nucleotides to ANAP-labeled KATP in unroofed membrane fragments; conditions: 10 mM unlabeled nucleotide
Description: Unroofed membranes were prepared using a modification of a protocol from the Heuser laboratory ([Heuser, 2000]; [Usukura et al., 2012]; [Zagotta et al., 2016]). Briefly, a coverslip containing adherent cells was removed from the cell culture medium and a small piece (0.5–1 cm) was broken off using jewelers forceps (#5) and washed in phosphate buffered saline (PBS, Thermo Fisher Scientific) diluted 1:3 in deionized water. Cells were exposed 3 × 10 s to a solution of 0.01% poly-L-lysine (Sigma) with intervening washes in diluted PBS to adhere them more firmly to the coverslips. The coverslip fragment was then placed in a 30 mm culture dish filled with 2–3 mL of 1/3X PBS and sonicated very briefly (~100 ms) using a probe sonicator (Vibra-cell; Newtown, CT), leaving behind adherent plasma membrane and sometimes additional cellular material. The unroofed fragments in our experiments were sometimes visible under bright-field illumination, a potential result of our modified ‘unroofing’ procedure. Morphologically, such cell fragments resemble the ‘partially unroofed’ cells identified by Usukura et al. ([Usukura et al., 2012]) Cells cultured on poly-D-lysine coated FluoroDishes were unroofed in diluted PBS with no additional poly-L-lysine treatment. This procedure yielded a higher percentage of completely unroofed plasma membranes (i.e. nearly invisible with brightfield illumination).
Unroofed membrane fragments were imaged directly on FluoroDishes (FD35-PDL-100, World Precision Instruments) or on broken coverslips placed in a FluoroDish (FD3510, World Precision instruments) using a Nikon TE2000-U microscope equipped with a 40x (S Fluor, 1.3 NA; Nikon, Kingston Upon Thames, UK) or 100x (Apo TIRF, 1.49 NA, Nikon) oil-immersion objective and low-fluorescence immersion oil (MOIL-30, Olympus; Southend-on-Sea, UK) or a 60x water immersion objective (Plan Apo VC, 1.20 NA, Nikon). ANAP was excited using a ThorLabs LED source (LED4D067) at 385 nm connected to the microscope using a liquid light guide in series with a 390/18 nm band-pass filter (MF390-18, ThorLabs; Newton, NJ) and MD416 dichroic (ThorLabs). For imaging, emitted light was filtered through a 479/40 nm band-pass filter (MF479-40, ThorLabs). GFP-tagged constructs were imaged using a similar setup with excitation at 490 nm, a 480/40 band-pass excitation filter (Chroma; Bellows Falls, VT), a DM505 dichroic mirror (Chroma), and 510 nm long-pass emission filter (Chroma). All images were acquired using a PIXIS 400B CCD camera (Princeton Instruments; Trenton, NJ). For spectroscopy, ANAP was excited as above, but emitted light was passed through a 400 nm long-pass filter (FEL0400, ThorLabs) and directed through the slit of an Isoplane 160 spectrometer (300 g/mm grating; Princeton Instruments) in series with the camera. The acquired images retained spatial information in the y-dimension, with the x-dimension replaced by wavelength (Figure 1—figure supplement 1a). Exposure times were typically 100 ms for brightfield images, 1–10 s for steady-state spectra and 1–5 s for time-course experiments.
To prevent accumulation of fluorescent nucleotides in the bath, FluoroDishes were perfused with either (in mM) 140 KCl, 20 NaCl, 10 MgCl2, 10 HEPES pH 7.2 with NaOH or 140 KCl, 20 NaCl, 1 EDTA, 10 HEPES pH 7.2 with NaOH using a peristaltic pump (Ismatec; Wertheim, Germany). Unroofed membranes were directly perfused with nucleotides using an 8-channel µFlow perfusion system (ALA Scientific Instruments; Farmingdale, NY). Solution change with the µFlow was rapid (τ = 0.73 s±0.02 s, n=5) as measured from single exponential fits to wash-out of 50 µM tetramethylrhodamine-5-maleimide (TMRM) after switching to a solution with no TMRM. TMRM was excited with a 565 nm LED with a D540/25X band-pass filter (Chroma) and DM565 dichroic mirror (Chroma). Emitted light was collected through a D605/55M band-pass filter (Chroma). […]

[2] = test system: SUR1/Kir6.2-G334D with K1384A (K2A) in NBS2; parameters: method as in Proks et al., 2014; conditions: ref Proks et al., 2014; cited from earlier work

## Nc1ncnc2c1ncn2[C@@H]1O[C@H](COP(=O)([O-])OP(=O)([O-])O)[C@@H](O)[C@H]1O.[Mg+2] [MgADP]
[1]
  ANAP fluorescence intensity relative to the original peak: 101 ± 2%
[2]
  shift of concentration dependence of activation to higher concentrations by K2A mutation: > 20 fold
